In patent US7985731B2, “Sugar chain added GLP-1 peptide” (Otsuka Chemical Holdings Co., Ltd., priority 2007, dated 2011):
Peptide text beside a SMILES is read from it. * marks the point of attachment. X1 = CC(=O)N[C@@H]1[C@@H](O)[C@H](O[C@@H]2O[C@H](CO)[C@@H](O[C@@H]3O[C@H](CO[C@H]4O[C@H](CO)[C@@H](O)[C@H](O)[C@@H]4O[C@@H]4O[C@H](CO)[C@@H](O[C@@H]5O[C@H](CO[C@]6(C(=O)O)C[C@H](O)[C@@H](NC(C)=O)[C@H]([C@H](O)[C@H](O)CO)O6)[C@H](O)[C@H](O)[C@H]5O)[C@H](O)[C@H]4NC(C)=O)[C@@H](O)[C@H](O[C@H]4O[C@H](CO)[C@@H](O)[C@H](O)[C@@H]4O[C@@H]4O[C@H](CO)[C@@H](O[C@@H]5O[C@H](CO[C@]6(C(=O)O)C[C@H](O)[C@@H](NC(C)=O)[C@H]([C@H](O)[C@H](O)CO)O6)[C@H](O)[C@H](O)[C@H]5O)[C@H](O)[C@H]4NC(C)=O)[C@@H]3O)[C@H](O)[C@H]2NC(C)=O)[C@@H](CO)O[C@H]1NC(=O)C*

Assays:
mouse GLP-1 receptor = molecular target: T1, mouse GLP-1 receptor (Mus musculus, UniProt O35659); test: Test Example 6: ability to synthesize cAMP in mouse GLP-1 receptor-expressing CHO-K1 cells; assay type: cell-based
T1 construct: expressed in transfected cells
T1 sequence (O35659 22-463): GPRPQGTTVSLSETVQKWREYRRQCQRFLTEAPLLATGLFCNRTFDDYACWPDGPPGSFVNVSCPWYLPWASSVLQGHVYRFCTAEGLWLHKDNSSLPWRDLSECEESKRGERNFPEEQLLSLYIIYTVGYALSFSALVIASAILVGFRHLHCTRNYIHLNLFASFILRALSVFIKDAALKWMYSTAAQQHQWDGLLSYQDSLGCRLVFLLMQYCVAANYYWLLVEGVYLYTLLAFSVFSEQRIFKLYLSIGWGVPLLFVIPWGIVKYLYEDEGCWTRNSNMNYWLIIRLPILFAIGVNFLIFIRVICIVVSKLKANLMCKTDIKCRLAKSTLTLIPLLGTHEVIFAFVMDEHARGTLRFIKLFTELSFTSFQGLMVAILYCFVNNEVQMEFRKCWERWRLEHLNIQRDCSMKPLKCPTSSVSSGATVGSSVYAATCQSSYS
Procedure: 1. Construction of Mouse GLP-1 Receptor-Expressing Vector
A mouse GLP1 receptor sense primer (5′-[…]-3′) (SEQ ID NO: 152) and a mouse GLP-1 receptor antisense primer (5′-[…]-3′) (SEQ ID NO: 153) capable of binding to the 5′ and 3′ ends of mouse GLP-1 receptor cDNA were separately synthesized. PCR was performed using Ex Taq polymerase (TaKaRa) with cDNA (Clone ID: 40046534, Open Biosystems) as a template. Specifically, 50 μL in total of reaction solution consisting of 1 μL of template cDNA (10 ng/μL), 4 μL of 2.5 mM dNTPs, 1 μL of primer solution mixtures (each 50 μM), 5 μL of ×10 Ex Taq polymerase Buffer, 0.25 μL of Ex Taq polymerase and 38.75 μL of sterilized water was used and allowed to react by 94° C. for 1 minute; 94° C. for 45 seconds, 55° C. for 1 minute and 72° C. for 2 minutes (35 cycles); and 72° C. for 10 minutes. The PCR reaction product was electrophoresed on 1% agarose gel, and the cDNA fragment was purified using Wizard SV Gel and PCR Clean-up System (Promega) and treated with restriction enzymes (EcoRI and NheI) to obtain mouse GLP-1 receptor cDNA.
To efficiently obtain cells highly expressing a mouse GLP-1 receptor, a pIRES-gfp vector was used as an expression vector. This vector was prepared by inserting, to a vector pEGFP-N1 (Clontech), an IRES gene-containing DNA fragment obtained by the restriction enzyme treatment (Sal I and BamHI) of pIRESpuro2 (Clontech).
The mouse GLP-1 receptor cDNA fragment was inserted to pIRES-gfp to thereby obtain a mouse GLP-1 receptor-expressing vector mGLP-1R/pIRES-gfp. The DNA sequence of the obtained vector was confirmed using ABI3100-Avant (Applied Biosystems).
2. Preparation of Mouse GLP-1 Receptor-Expressing CHO-K1 Cells
CHO-K1 cells (ATCC catalog No. CCL-61) were transfected with the obtained mGLP-1R/pIRES-gfp using FuGENE (registered trademark) (Roche) according to the instruction manual. The transfected CHO-K1 cells were cultured in RPMI1640 medium (Wako Pure Chemical Industries) containing 10% FCS (Hyclone) and penicillin-streptomycin (SIGMA). Drug selection was conducted by the addition of 1.0 mg/ml G418 (Wako Pure Chemical Industries). The drug resistance cells were sorted with a cell sorter (EPICS ALTRA, Beckman Coulter) using a GFP expression level as an index. After the sorting, the limiting dilution method was conducted to obtain cells highly expressing GFP, namely, cells highly expressing a mouse GLP-1 receptor. The obtained cells were used as mouse GLP-1 receptor-expressing CHO-K1 cells in the experiment shown below.
3. Analysis of Agonist Effect of Oligosaccharide Chain Added GLP-1 Peptide (Ability to Synthesize cAMP)
The mouse GLP-1 receptor-expressing CHO-K1 cells prepared in the preceding paragraph 2 were used to evaluate the agonist effect of the oligosaccharide chain added GLP-1 peptide using the ability to synthesize cAMP as an index.
The mouse GLP-1 receptor-expressing CHO-K1 cells were suspended at a concentration of 5×10^5 cells/ml in RPMI1640 medium containing 10% FCS. The cell suspension was seeded at a concentration of 100 μL per well to a flat-bottomed 96-well plate (Falcon) and cultured at 5% CO2 at 37° C. for 16 hours. The culture supernatant was discarded. The oligosaccharide chain added GLP-1 peptide dissolved in Krebs Ringer bicarbonate Buffer containing 2.5 mM glucose was added at a concentration of 100 μL/well and cultured at 37° C. for 30 minutes. The culture supernatant was immediately discarded. The amount of cAMP synthesized in the mouse GLP-1 receptor-expressing CHO-K1 cells was measured using cAMP ELISA Kit (GE Healthcare or Cayman) and used as an index for the agonist effect of the oligosaccharide chain added GLP-1 peptide on mouse GLP-1 receptors.
GLP-1 increases intracellular cAMP concentrations through the binding to its receptor and promotes insulin secretion. Thus, the activity of the oligosaccharide chain added GLP-1 peptide was evaluated using the ability to synthesize cAMP as an index. […]

C57BL/6JJcl mice = test: Test Example 7: Oral Glucose Tolerance Test (OGTT); assay type: in vivo; conditions: 9 nmol/kg intraperitoneal 30 minutes before glucose 1 mg/g oral
Procedure: After 30 minutes, a glucose solution was orally administered at a dose of 1 mg/g. Blood was collected from the orbits before the glucose administration and 30 minutes, 60 minutes and 120 minutes after the glucose administration. Blood-sugar levels were measured using ACCU-CHEK Aviva (Roche Diagnostics).
After the oral administration of the glucose solution to the mice fasted overnight, blood was collected over time, and blood-sugar levels were measured.
The correlation between the oligosaccharide chain structure and the activity was studied in mouse OGTT.

Row | SMILES | cAMP synthesis activity compared with GLP-1 (in words) (mouse GLP-1 receptor) | effect of suppressing rise in blood-sugar levels in OGTT (C57BL/6JJcl mice)
1 | CC[C@H](C)[C@H](NC(=O)[C@H](Cc1ccccc1)NC(=O)[C@H](CCC(=O)O)NC(=O)[C@H](CCCCN)NC(=O)[C@H](C)NC(=O)[C@H](C)NC(=O)[C@H](CCC(N)=O)NC(=O)[C@H](CSCC(=O)N[C@@H]1O[C@H](CO)[C@@H](O[C@@H]2O[C@H](CO)[C@@H](O[C@@H]3O[C@H](CO[C@H]4O[C@H](CO)[C@@H](O)[C@H](O)[C@@H]4O[C@@H]4O[C@H](CO)[C@@H](O[C@@H]5O[C@H](CO[C@]6(C(=O)O)C[C@H](O)[C@@H](NC(C)=O)[C@H]([C@H](O)[C@H](O)CO)O6)[C@H](O)[C@H](O)[C@H]5O)[C@H](O)[C@H]4NC(C)=O)[C@@H](O)[C@H](O[C@H]4O[C@H](CO)[C@@H](O)[C@H](O)[C@@H]4O[C@@H]4O[C@H](CO)[C@@H](O[C@@H]5O[C@H](CO[C@]6(C(=O)O)C[C@H](O)[C@@H](NC(C)=O)[C@H]([C@H](O)[C@H](O)CO)O6)[C@H](O)[C@H](O)[C@H]5O)[C@H](O)[C@H]4NC(C)=O)[C@@H]3O)[C@H](O)[C@H]2NC(C)=O)[C@H](O)[C@H]1NC(C)=O)NC(=O)[C@H](CCC(=O)O)NC(=O)[C@H](CC(C)C)NC(=O)[C@H](Cc1ccc(O)cc1)NC(=O)[C@H](CO)NC(=O)[C@H](CO)NC(=O)[C@@H](NC(=O)[C@H](CC(=O)O)NC(=O)[C@H](CO)NC(=O)[C@@H](NC(=O)[C@H](Cc1ccccc1)NC(=O)[C@@H](NC(=O)CNC(=O)[C@H](CCC(=O)O)NC(=O)[C@H](C)NC(=O)[C@@H](N)Cc1c[nH]cn1)[C@@H](C)O)[C@@H](C)O)C(C)C)C(=O)N[C@@H](C)C(=O)N[C@@H](Cc1c[nH]c2ccccc12)C(=O)N[C@@H](CC(C)C)C(=O)N[C@H](C(=O)N[C@@H](CCCCN)C(=O)NCC(=O)N[C@@H](CCCNC(=N)N)C(=O)NCC(=O)O)C(C)C [Example 2, 22Cys GLP-1-disialo] (H-HAEGTFTSDVSSYLEC(X1)QAAKEFIAWLVKGRG-OH) | activity equal to or more than that of the GLP-1 | strong effect of suppressing rise in blood-sugar levels
2 | CC[C@H](C)[C@H](NC(=O)[C@H](Cc1ccccc1)NC(=O)[C@H](CCC(=O)O)NC(=O)[C@H](CCCCN)NC(=O)[C@H](C)NC(=O)[C@H](C)NC(=O)[C@H](CCC(N)=O)NC(=O)CNC(=O)[C@H](CCC(=O)O)NC(=O)[C@H](CC(C)C)NC(=O)[C@H](Cc1ccc(O)cc1)NC(=O)[C@H](CO)NC(=O)[C@H](CO)NC(=O)[C@@H](NC(=O)[C@H](CC(=O)O)NC(=O)[C@H](CO)NC(=O)[C@@H](NC(=O)[C@H](Cc1ccccc1)NC(=O)[C@@H](NC(=O)CNC(=O)[C@H](CCC(=O)O)NC(=O)[C@H](C)NC(=O)[C@@H](N)Cc1c[nH]cn1)[C@@H](C)O)[C@@H](C)O)C(C)C)C(=O)N[C@@H](C)C(=O)N[C@@H](Cc1c[nH]c2ccccc12)C(=O)N[C@@H](CC(C)C)C(=O)N[C@H](C(=O)N[C@@H](CCCCN)C(=O)NCC(=O)N[C@@H](CCCNC(=N)N)C(=O)NCC(=O)N[C@@H](CSCC(=O)N[C@@H]1O[C@H](CO)[C@@H](O[C@@H]2O[C@H](CO)[C@@H](O[C@@H]3O[C@H](CO[C@H]4O[C@H](CO)[C@@H](O)[C@H](O)[C@@H]4O[C@@H]4O[C@H](CO)[C@@H](O[C@@H]5O[C@H](CO[C@]6(C(=O)O)C[C@H](O)[C@@H](NC(C)=O)[C@H]([C@H](O)[C@H](O)CO)O6)[C@H](O)[C@H](O)[C@H]5O)[C@H](O)[C@H]4NC(C)=O)[C@@H](O)[C@H](O[C@H]4O[C@H](CO)[C@@H](O)[C@H](O)[C@@H]4O[C@@H]4O[C@H](CO)[C@@H](O[C@@H]5O[C@H](CO[C@]6(C(=O)O)C[C@H](O)[C@@H](NC(C)=O)[C@H]([C@H](O)[C@H](O)CO)O6)[C@H](O)[C@H](O)[C@H]5O)[C@H](O)[C@H]4NC(C)=O)[C@@H]3O)[C@H](O)[C@H]2NC(C)=O)[C@H](O)[C@H]1NC(C)=O)C(=O)O)C(C)C [Example 5, 38Cys GLP-1-disialo] | activity equal to or more than that of the GLP-1 | strong effect of suppressing rise in blood-sugar levels
